These results are taken from US20240334934A1, “FUNGICIDE MIXTURE” (priority 2021, published 2024).

Assay [1] concerns Pyrenophora tritici-repentis K6186. The experiment in a line: Efficacy of purified CtmC alone in-vitro, 96 well plate, OD 620 nm. The class given is cell-based. Particulars: CtmC 10 ppm, mycelium inoculum. The method, then: CtmC was dissolved in DMSO (Dimethylsulfoxid) to a final concentration of 1000 ppm to create a stock solution. A second dilutions of 1:10 was made in water+0.025% Tween 20. From this second dilution 10 μl are dispensed into a 96 well plate. […] All wells containing CtmC also contain DMSO (1%) and Tween 20 (0.0025%). In the following table 4 some of the species were tested using several distinct isolates (internal strain number indicated) to understand variability among different isolates of the same species sampled in different locations, producing different mycotoxins (genus Fusarium), or expressing various tolerances to fungicides of the SDHI (Succinate Dehydrogenase Inhibitor), SBI (Sterol Biosynthesis Inhibitors) and/or QoI (quinone outside inhibitors) classes (example: Zymoseptoria tritici). Different isolates had variable inoculum density and number of biological repicas, as indicated.

The next assay relates to Botrytis cinerea. The assay is described as follows: Greenhouse test, tomato, preventative. The class given is in vivo. Particulars: 2 days preventative, EC50 formulation. The method, then:
Purified Cyclothiazomycin C (CtmC) was formulated as an EC50 formulation. The formulation was diluted in water at rates of 100 ppm and 50 ppm of CtmC. Plants were treated with 400 L/ha of the diluted product supplemented with an adjuvant to improve sticking and spreading, resulting in a treatment of 40 g/ha and 20 g/ha of CtmC, respectively.
Botrytis cinerea tomato/preventative (Botrytis on tomato) 4-week old tomato plants cv. Roter Gnom are treated in a spray chamber with the formulated test compound diluted in water. The test plants are inoculated by spraying them with a spore suspension two days after application. The inoculated test plants are incubated at 20° C. and 95% rh in a greenhouse and the percentage leaf area covered by disease is assessed when an appropriate level of disease appears on untreated check plants (5-6 days after application).

The test system of another assay is Gibberella zeae K6102. The class given is cell-based. Particulars: CtmC 10 ppm.
Another assay has as its system Phakopsora pachyrhizi. The experiment in a line: Leaf disc assay, soybean leaf disks, preventive. The format is in vivo. Particulars: rate 20 ppm, approx. 12 dpi. As for the experimental part: A CtmC stock was generated at 1000 ppm in DMSO, then Diluted 1:50 in water+Tween 20 at 0.025% resulting in a 20 ppm solution.
Phakopsora pachyrhizi (Asian Soybean rust): Soybean leaf disks are placed on agar in multiwell plates (24-well format) and sprayed with test solutions. After drying, the leaf disks are inoculated with a spore suspension of the fungus. After appropriate incubation the activity of a compound is assessed approx. 12 dpi (days after inoculation) as preventive fungicidal activity

Another assay relates to Mycosphaerella arachidis. The assay is described as follows: Efficacy of purified CtmC in-vitro, microtiter plate growth inhibition. The format is cell-based. Particulars: rate 10 ppm; approximately 5-6 days at 24° C. As for the experimental part:
CtmC was dissolved in DMSO (Dimethylsulfoxid) to a final concentration of 1000 ppm to create a stock solution. A second dilutions of 1:10 was made in water+0.025% Tween 20. From this second dilution 10 μl are dispensed into a 96-well plate. To each well, 90 μl of medium with fungal spores are added and mixed, resulting in final CtmC concentrations of 10 ppm. All wells containing CtmC also contain DMSO (1%) and Tween 20 (0.0025%).
Mycosphaerella arachidis (Brown leaf spot of groundnut): Conidia of the fungus from cryogenic storage were directly mixed into nutrient broth (PDB potato dextrose broth). After placing a solution of the test compounds into a microtiter plate (96-well format) the nutrient broth containing the fungal spores was added. The test plates were incubated at 24° C. and the inhibition of growth was determined photometrically after approximately 5-6 days at 620 nm.

For another assay, the system named is Gibberella zeae K6934. The format is cell-based. Particulars: CtmC 10 ppm.
In assay [2] the test system is Fusarium virguliforme isolate 2. The experiment in a line: Efficacy of purified CtmC, 96-well growth assay, IC50 from OD620. The class given is cell-based. As for the experimental part: (§1) A Fusarium virguliforme spore suspension of 25′000 spores/ml was produced in PDB (potato dextrose broth) medium supplemented with 0.3% agar. Isolates of the species originate from Syngenta internal collection (CH).
(§2) CtmC was dissolved in DMSO (Dimethylsulfoxid) to a final concentration of 1000 ppm to create a stock solution. Different dilutions of CtmC were created in DMSO: 1000 ppm, 330 ppm, 110 ppm, 37 ppm, 12 ppm and 4.1 ppm. 10 μl of DMSO or CtmC solution were transferred to a 96-well-dilution plate and diluted 10-fold with 90 μl 0.025% Tween 20/1H2O solution. Out of the dilution plate, 10 μl were transferred to a 96 well assay plate and 90 μl spore suspension were added to each well.
(§3) 96 Well plates were then incubated for 72 h at 24° C., 90% relative humidity in the dark. Plates were evaluated by reading the OD at 620 nm.
(§4) Assays were run on two independent isolates for the species. Each isolate was tested twice (assay 1 and assay 2) and each isolate x fungicide rate combination was duplicated on the test plates.
(§5) The OD620 was averaged over the two wells and used to calculate IC50 values (fungicide concentration resulting in 50% inhibition of growth) with the program GraphPad prism, resulting in 4 independent IC50 values. No significant differences were found between both isolates tested: […]

The subject of assay [3] is Fusarium virguliforme isolate 1. The assay is described as above. The format is cell-based. As for the experimental part:
as §1, §2, §3, §4, §5

In assay [4] the test system is Zymoseptoria tritici K7953. The assay is described as follows: Efficacy of purified CtmC alone in-vitro, 96 well plate, OD 620 nm. Particulars: CtmC 10 ppm. The format is cell-based. As for the experimental part: (§6) CtmC was dissolved in DMSO (Dimethylsulfoxid) to a final concentration of 1000 ppm to create a stock solution. A second dilutions of 1:10 was made in water+0.025% Tween 20. From this second dilution 10 μl are dispensed into a 96 well plate. To each well, 90 μl of medium (PDB—potato dextrose broth, plus 0.3% agar) with fungal spores are added and mixed, resulting in final CtmC concentrations of 10 ppm. All wells containing CtmC also contain DMSO (1%) and Tween 20 (0.0025%). In the following table 4 some of the species were tested using several distinct isolates (internal strain number indicated) to understand variability among different isolates of the same species sampled in different locations, producing different mycotoxins (genus Fusarium), or expressing various tolerances to fungicides of the SDHI (Succinate Dehydrogenase Inhibitor), SBI (Sterol Biosynthesis Inhibitors) and/or QoI (quinone outside inhibitors) classes (example: Zymoseptoria tritici). Different isolates had variable inoculum density and number of biological repicas, as indicated.

The subject of assay [5] is Gibberella fujikuroi K5299. The description is as above. The format is cell-based. Particulars: CtmC 10 ppm. As for the experimental part:
as §6

The next assay concerns Tilletia tritici K5212. The assay is described as above. The format is cell-based. Particulars: CtmC 10 ppm.
[6] abbreviates: 72 h at 24° C., 25'000 spores/ml.

Consider `C=C1NC(=O)CNC(=O)[C@H](CCCCN)NC(=O)[C@@]2(C)NC(=O)/C(=C/C)NC(=O)[C@H]3CSC(=N3)[C@@H](CC(N)=O)CC(=O)c3ccc(nc3[C@@H](C)NC(=O)[C@@H]3CCCN3C1=O)-c1nc(cs1)C1=N[C@H](CS1)C(=O)NC(=C)c1nc(cs1)-c1nc(cs1)C1=N[C@@H](CS1)C(=O)N[C@@H](C(=O)O)CS2` [CtmC, cyclothiazomycin C], for which the “efficacy (%)” value in assay [1] is listed as 90%; in the assay with Gibberella zeae K6102 it was 52%; in the assay on Gibberella zeae K6934 it was 48%; in [4], 77%; in [5] it was 47%; in the assay on Tilletia tritici K5212 it was 96%. The “optical density at 620 nm” value in [1] (blank 0.046, untreated 0.508) was 0.094; with Gibberella zeae K6102 (blank 0.044, untreated 0.733), 0.377; in the assay with Gibberella zeae K6934 (blank 0.052, untreated 0.641), 0.361; in assay [4] (blank 0.055, untreated 0.235) it was 0.096; in assay [5] (blank 0.053, untreated 0.941), 0.528; in the assay with Tilletia tritici K5212 (blank 0.046, untreated 0.451), 0.062. Besides, the “efficacy 20 g/ha (%)” value in the assay on Botrytis cinerea (20 g/ha) turned out to be 30%. In addition, the “efficacy 40 g/ha (%)” value with Botrytis cinerea (40 g/ha) is 47%. For the same molecule, the “control of fungal growth (%)” value in the assay on Phakopsora pachyrhizi is 50%; in the assay with Mycosphaerella arachidis, 100%. In addition, the figures for the “IC50 (ppm) Assay-1” value in assay [2] (setting [6]) and in assay [3] (setting [6]) were 0.7 ppm and 0.8 ppm, respectively. For the same molecule, the “IC50 (ppm) Assay-2” value in assay [2] (setting [6]) is on record as 1.5 ppm; in assay [3] (setting [6]), 1.6 ppm. The “IC50 (ppm) average” value in assay [2] (average of Assay-1 and Assay-2) is reported as 1.1 ppm; in assay [3] (average of Assay-1 and Assay-2), 1.2 ppm. The IC50 result in assay [2] (both tested isolates) and in [3] (both tested isolates) was “ca. 1 ppm” each time.
